According to US20070141109A1, “Local Deliver of 17-Beta Estradiol for Preventing Vascular Intimal Hyperplasia and for Improving Vascular Endothelium Function after Vascular Injury” (priority 1999, published 2007):
“Also recorded” adds a separate entry of the source.

What was measured:
[1] = test system: human umbilical vein endothelial cells; details: HUVEC exposed to tumor necrosis factor; cited from earlier work
[2] = test system: endothelium of injured coronary arteries; assay: Reendothelialization by lectin Dolichos biflorus agglutinin immunohistochemistry; type: in vivo, pigs
Method: (§1) The animals were euthanized at 4 weeks. Under general anesthesia as described above, exsanguination was performed with replacement by 1 l of 0.9% NaCl solution. The heart was perfusion-fixed in vivo with 2 l of 10% buffered formalin at 200 mm Hg pressure. The heart was then removed, and the coronary arteries were harvested immediately. From the injured segment (identified in relation to side branches), serial sections of 3-5 mm were made, and stored in 10% buffered formalin solution. The sections were then treated with incremental concentrations of alcohol followed by treatment with xylene and paraffin. Slices of 6:m thickness were prepared, and stained with Verhoeff's stain for assessment of tissue response to injury. […] The % of reendothelialization and, the % of endothelial nitric oxide synthase (eNOS) expression were calculated as follows: (the total length of the luminal surface staining positively/the perimeter of the lumen)×100, respectively. Analysis was performed by an independent examiner with no knowledge of the treatment groups to which the sections belonged. […]

[3] = test system: coronary arteries subjected to PTCA; assay: Response to intracoronary acetylcholine by quantitative coronary angiography after PTCA; type: in vivo, pigs
Method: The study protocol was approved by the Animal Care and Ethical Research Committee of the Montreal Heart Institute. Juvenile farm pigs weighing 20-25 kg (1 female, and 8 castrated males) were used. On the day of the experiment, animals received 650 mg of acetylsalicylic acid and 30 mg of nifedipine orally, were premedicated with 6 mg/kg of tiletamine hydrochloride and zolazepam hydrochloride, and were given 0.05 mg of atropine intramuscularly. Under general anesthesia (a mixture of 1-1.5% isoflurane and oxygen enriched air), the right femoral artery was cannulated percutaneously. An 8 Fr arterial sheath was introduced, and […] of lidocaine and 250 U/kg of heparin were administered intra-arterially. Additional heparin was administered during PTCA if needed, to maintain an activated coagulation time of >300 seconds.
An 8 Fr right Amplatz guiding catheter and right Judkins guiding catheter were used for cannulation of the left and right coronary arteries, respectively. A standard balloon catheter (corresponding to a balloon/artery ratio of 1.1-1.3:1) was advanced over a 0.014″ floppy guide wire, and 3 successive 30-second inflations at 10 atm pressure were made with a 30 second interval between each inflation. PTCA was performed on all 3 coronary […] of each animal. For local delivery, the InfusaSleeve catheter (LocalMed Inc.) was used, which permits safe drug delivery with negligible additional injury (7). After balloon dilatation, each coronary artery of an animal was randomized to receive either 600:g of 17-beta estradiol (in 5 ml), vehicle alone (5 ml), or PTCA only. The vehicle 2-hydroxypropyl-beta-cyclodextrin (HPCD), and 17-beta estradiol were obtained from Sigma Chem. Co. For local delivery with the InfusaSleeve catheter, a proximal driving pressure of 10 atm and support balloon pressure of 6 atm were utilized.
All 9 animals underwent cardiac catheterization at the end of 4 weeks. After a baseline coronary angiogram, selective cannulation of the proximal portion of a coronary artery was performed with a single lumen balloon catheter (TotalCross, Schneider) for the administration of vasoactive agents. Acetylcholine (Ach) in increasing concentrations of 10^−7 M, 10^−6 M, 10^−5 M, 10^−4 M, was successively infused through the lumen port of the catheter. Each dose was administered for a duration of 3 minutes at a constant rate of 1 ml/min using an infusion pump. Coronary angiography was performed at the end of each dose. After infusion of the highest concentration of Ach (10^−4 M and angiography, 100:g of nitroglycerin was administered via the lumen port of the catheter, and a coronary angiogram performed. The same protocol was repeated for the other 2 coronary arteries. Heart rate, blood pressure, and ECG were monitored continuously throughout the experiment.
Coronary angiography was performed with a single plane imaging system (Electromed Intl). […] Care was taken to maintain the same angulation during angiography of a segment throughout the procedure. Ionic contrast (MD-76, Mallinckrodt Medical Inc) was used throughout the experiment. Images were captured at a frame speed of 30 frames/sec, and stored digitally. A segment of contrast-filled guiding catheter was included in every frame, for the purpose of calibration. Calibration was performed using the known diameter of the contrast-filled guiding catheter as the reference segment, to avoid error due to magnification. […]

[4] = test system: endothelial nitric oxide synthase (eNOS); assay: eNOS expression by immunohistochemistry; type: in vivo, pigs
Method: as §1

[5] = test system: proliferating SMC (PCNA-positive); assay: PCNA immunohistochemistry of the proliferative response to injury; type: in vivo, pigs; details: 7 days after PTCA
Method: Following slicing with a microtome and blocking of non-specific antibodies, the sections were treated with mouse anti-proliferating cell nuclear antigen (PCNA) antibodies and diluted biotinylated goat anti-mouse antibodies. They were then incubated with avidin-biotin (Elite ABC Kit, Vector Laboratories), and developed with 3,3′-diaminobenzidine (Vector Laboratories). They were finally counter-stained with hematoxylin. Porcine liver cells were used as a positive control. For each section, a 6 μm slice counter-stained with hematoxylin without treatment with the primary antibody (mouse anti-PCNA) served as a negative control. The proliferative response to injury was studied by immunohistochemical analysis of samples from animals euthanized at 7 days. The % proliferating SMC was obtained by dividing the number of PCNA-positive SMC by the total number of SMC in each field; separate measurements were made for neointima and media layers. The proliferating cells were identified as SMC by positive staining of parallel sections with a smooth muscle actin antibody. To standardize comparison among treatment groups, measurements were obtained at 4 fixed locations separated by 90° sites for each section, and the results averaged.

[6] = test system: coronary arteries subjected to PTCA; assay: Morphometric analysis of neointima hyperplasia after PTCA and local delivery; type: in vivo, pigs
Method: Eighteen juvenile farm pigs (9 female, and 9 castrated male) weighing 20-25 kg were studied. The study was approved by, and conducted in accordance with, the guidelines of the Animal Care and Ethical Research Committee of the Montreal Heart Institute. Before the procedure, animals were given 650 mg of acetylsalicylic acid and 30 mg of nifedipine orally, premedicated with intramuscular injection of 6 mg/kg of a mixture of tiletamine hydrochloride and zolazepam hydrochloride, and given 0.05 mg of atropine. The invasive procedure was performed under general anesthesia with a mixture of isoflurane (1 to 1.5%) and oxygen enriched air. The right femoral artery was cannulated percutaneously, and an 8 Fr arterial sheath was introduced. After arterial access had been obtained, 100 mg of lidocaine and 250 U/kg of heparin were administered intra-arterially via the sheath. Activated coagulation time was maintained at >300 seconds throughout the procedure. […] Standard PTCA equipment was used. An 8 Fr right Amplatz guiding catheter and right Judkins guiding catheter were used for cannulation of the left and right coronary arteries, respectively. PTCA was performed with a balloon size chosen to correspond to a balloon/artery ratio of 1.1-1.3. Three 30-second inflations at 10 atm pressure were performed with a 30-second interval between each inflation. Inflations were performed adjacent to major side branches to facilitate identification during harvesting, taking precaution not to include any side branch in the intended PTCA site. The left anterior descending, left circumflex, and right coronary arteries of each animal were subjected to PTCA. After PTCA, each coronary artery of an animal was randomized to receive either 600 μg of 17-beta estradiol locally, or vehicle alone locally, or PTCA only. The chemicals 17-beta estradiol and its vehicle 2-hydroxypropyl-beta-cyclodextrin (HPCD) were purchased from Sigma Chemical Co. The InfusaSleeve catheter (Local Med, Inc.) was used for local delivery.^12 Five ml of the designated substance was delivered at a driving pressure of 10 atm and support balloon pressure of 6 atm. Of the 18 animals, 2 died a few days after PTCA, and were excluded; thus, 16 animals were analyzed. Twelve animals were euthanized at 28 days, and 4 at 7 days. After premedication and anesthesia, the right internal jugular vein and common carotid artery were cannulated. Following cross-clamping of the descending thoracic aorta exposed via a left lateral thoracotomy, exsanguination was performed, with simultaneous administration of 1 l of 0.9% NaCl solution. The heart was perfusion-fixed in vivo with 2 l of 10% buffered formalin at 200 mm Hg pressure, removed from the animal, and placed in 10% buffered formalin solution. Coronary arteries were then dissected free from surrounding tissues. The site of PTCA was identified in relation to adjacent side branches, which served as landmarks. The injured segment was harvested with a 1 cm normal segment proximal and distal to the injured site. Serial sections 3 to 5 mm long were made from the harvested segment, with a minimum of at least 3 sections (maximum 5) from each PTCA site. Sections were stored in buffered 10% formalin and subjected to dehydration with increasing concentrations of alcohol, followed by treatment with xylene and paraffin. Each section was then cut to slices of 6 μm thickness with a microtome (Olympus cut 4060 E), and stained with Verhoeff's stain for morphometric analysis. Measurements were made with a video microscope (Leitz Diaplan, equipped with a Sony DXC 970 MD color video camera) linked to a 486 personal computer and customized software. A minimum of 3 sections for each injured segment were analyzed and results averaged. Analyses were made by a single observer unaware of the treatment group to which each segment had bee allocated. Randomly selected sections were viewed by a second observer (also blinded to protocol) independently; inter-observer variability was <5%. […]

[7] = rats, estimated; cited from earlier work
[8] = 600 μg locally after PTCA, 28 days, mean ± SD

C[C@]12CC[C@@H]3c4ccc(O)cc4CC[C@H]3[C@@H]1CC[C@@H]2O [17-beta estradiol]
decrease in apoptosis [1]: 50%
Reendothelialization ([2]; 4 weeks after PTCA): 90.6±5.5%
reendothelialization compared to PTCA only and vehicle ([2]; FIG. 4, in words): reendothelialization to a greater degree
Diameter-basal (basal coronary artery diameter) ([3]; 4 weeks after PTCA and 600 μg locally): 2.53±0.6 mm
Diameter-post Ach ([3]; Ach 10^−4M, 4 weeks): 2.28±0.61 mm
coronary artery diameter after nitroglycerin ([3]; after 10^−4 M Ach then nitroglycerin, 4 weeks): 2.61±0.48 mm
vasoconstrictive response to Ach ([3]; any Ach concentration used, in words): no significant vasoconstrictive response
changes in heart rate, ECG, or blood pressure ([3]; during the local delivery or intracoronary infusion of vasoactive agents): No changes
Endothelial nitric oxide synthase expression ([4]; 4 weeks after PTCA): 35.6±11.8%
expression of eNOS compared to PTCA only and vehicle ([4]; FIG. 5, in words): greater expression of eNOS
% PCNA-positive SMC in the media [5]: 0.4±0.3%
% of PCNA-positive SMC in the neointima [5]: 0.43±0.52%
% neointima [6, 8]: 12.16 ± 8.89%
% stenosis [6, 8]: 15.67 ± 11.13%
EELref/EELinj (vascular remodeling) [6, 8]: 1.01±0.16
Neointima area [6, 8]: 0.4 ± 0.3 mm^2
Neointima/Media area [6, 8]: 0.59 ± 0.48
Restenotic index [6, 8]: 1.3 ± 0.5
decrease of neointima formation ([6]; compared to PTCA only, 28 days): 54.6%
decrease of neointima formation ([6]; compared to vehicle alone, 28 days): 64.9%
performance of lower doses ([6]; doses of 200 and 400 μg, local): as performing as the dose of 600 μg
% neointima ([6]; female pigs): 8.29 ± 3.72%
% stenosis ([6]; female pigs): 11.09 ± 5.16%
Neointima area ([6]; female pigs): 0.25 ± 0.15 mm^2
Neointima/Media area ([6]; female pigs): 0.32 ± 0.16
Restenotic index ([6]; female pigs, 5 segments): 1.37 ± 0.45
neointima hyperplasia compared to PTCA only or vehicle alone ([6]; local delivery, 28 days, in words): markedly less neointima hyperplasia; also recorded: significantly less neointima hyperplasia
% neointima ([6]; male pigs): 14.93 ± 10.68%
% stenosis ([6]; male pigs): 18.93 ± 13.39%
Neointima area ([6]; male pigs): 0.51 ± 0.34 mm^2
Neointima/Media area ([6]; male pigs): 0.78 ± 0.55
Restenotic index ([6]; male pigs, 7 segments): 1.2 ± 0.59

CC(O)COC[C@H]1O[C@@H]2O[C@H]3[C@H](O)[C@@H](O)[C@@H](O[C@H]4[C@H](O)[C@@H](O)[C@@H](O[C@H]5[C@H](O)[C@@H](O)[C@@H](O[C@H]6[C@H](O)[C@@H](O)[C@@H](O[C@H]7[C@H](O)[C@@H](O)[C@@H](O[C@H]8[C@H](O)[C@@H](O)[C@@H](O[C@H]1[C@H](O)[C@H]2O)O[C@@H]8COCC(C)O)O[C@@H]7COCC(C)O)O[C@@H]6COCC(C)O)O[C@@H]5COCC(C)O)O[C@@H]4COCC(C)O)O[C@@H]3COCC(C)O (stereo partly drawn) [HPCD, 2-hydroxypropyl-beta-cyclodextrin]
toxic dose (nephrotoxicity) [7]: 200 mg/kg
